Assay [1] is filed under the species Homo sapiens. Briefly: Inhibition of Glucosidase 2 at 2 umol/mI.
In the next assay the test system is Saccharomyces cerevisiae. Briefly: Inhibition of Saccharomyces cerevisiae glucosidase (of family 13 alpha-glucosidase) by compound with concentration 1 umol/mI.
In assay [2] the target is T1, Beta-galactosidase (Homo sapiens) (UniProt P16278).
T1 sequence (whole entry): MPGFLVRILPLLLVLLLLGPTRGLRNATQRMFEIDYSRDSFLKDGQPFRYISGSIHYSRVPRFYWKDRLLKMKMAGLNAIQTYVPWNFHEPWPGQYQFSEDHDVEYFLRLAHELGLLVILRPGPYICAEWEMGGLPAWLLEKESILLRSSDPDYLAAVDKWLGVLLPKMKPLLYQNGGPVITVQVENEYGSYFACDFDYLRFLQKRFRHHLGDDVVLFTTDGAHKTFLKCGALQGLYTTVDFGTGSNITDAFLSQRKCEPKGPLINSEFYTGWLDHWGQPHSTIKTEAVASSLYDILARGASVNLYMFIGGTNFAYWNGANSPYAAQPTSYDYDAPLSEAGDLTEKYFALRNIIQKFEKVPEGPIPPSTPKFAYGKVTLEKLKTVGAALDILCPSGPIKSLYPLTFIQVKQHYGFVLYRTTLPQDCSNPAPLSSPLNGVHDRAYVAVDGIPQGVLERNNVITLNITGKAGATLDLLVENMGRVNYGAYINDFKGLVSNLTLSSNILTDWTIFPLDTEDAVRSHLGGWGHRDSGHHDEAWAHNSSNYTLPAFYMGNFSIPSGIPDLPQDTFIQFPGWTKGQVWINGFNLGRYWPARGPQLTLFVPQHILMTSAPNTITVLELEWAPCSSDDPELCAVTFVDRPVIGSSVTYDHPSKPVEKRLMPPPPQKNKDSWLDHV
Briefly: Inhibition of beta-Galactosidase at 5 umol/mL.

The target in assay [3] is T2, Lysosomal alpha-mannosidase (Homo sapiens) (UniProt O00754).
T2 sequence (whole entry): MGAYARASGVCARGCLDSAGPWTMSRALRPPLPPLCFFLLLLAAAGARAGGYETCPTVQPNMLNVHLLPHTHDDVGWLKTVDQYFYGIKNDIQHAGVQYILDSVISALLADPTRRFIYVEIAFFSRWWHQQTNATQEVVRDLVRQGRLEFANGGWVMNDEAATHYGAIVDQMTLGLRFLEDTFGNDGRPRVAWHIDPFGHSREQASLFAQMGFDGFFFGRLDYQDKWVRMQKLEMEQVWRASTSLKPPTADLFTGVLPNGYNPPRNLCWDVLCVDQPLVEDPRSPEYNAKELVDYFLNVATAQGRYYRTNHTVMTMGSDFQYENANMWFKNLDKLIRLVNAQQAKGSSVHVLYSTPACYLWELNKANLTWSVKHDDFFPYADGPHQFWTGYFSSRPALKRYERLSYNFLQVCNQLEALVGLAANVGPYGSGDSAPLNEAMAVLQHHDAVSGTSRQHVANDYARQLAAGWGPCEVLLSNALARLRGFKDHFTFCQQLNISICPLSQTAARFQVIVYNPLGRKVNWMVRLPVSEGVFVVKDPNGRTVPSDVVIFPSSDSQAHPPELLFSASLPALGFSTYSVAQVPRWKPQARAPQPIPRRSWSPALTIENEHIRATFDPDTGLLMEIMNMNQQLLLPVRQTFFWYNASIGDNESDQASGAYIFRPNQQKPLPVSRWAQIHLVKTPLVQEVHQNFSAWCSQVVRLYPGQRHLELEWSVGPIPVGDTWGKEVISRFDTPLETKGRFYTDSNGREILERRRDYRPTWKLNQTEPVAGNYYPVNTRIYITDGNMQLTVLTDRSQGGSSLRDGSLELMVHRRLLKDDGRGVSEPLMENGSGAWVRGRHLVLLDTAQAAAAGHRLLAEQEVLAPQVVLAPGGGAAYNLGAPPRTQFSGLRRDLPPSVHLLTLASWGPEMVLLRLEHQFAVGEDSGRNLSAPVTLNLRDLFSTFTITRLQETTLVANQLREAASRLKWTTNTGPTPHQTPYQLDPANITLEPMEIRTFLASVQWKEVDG
Briefly: Inhibition of alpha-Mannosidase at 5 umol/mL.

In assay [4] the target is T3, Cytosolic beta-glucosidase (Homo sapiens) (UniProt Q9H227).
T3 sequence (whole entry): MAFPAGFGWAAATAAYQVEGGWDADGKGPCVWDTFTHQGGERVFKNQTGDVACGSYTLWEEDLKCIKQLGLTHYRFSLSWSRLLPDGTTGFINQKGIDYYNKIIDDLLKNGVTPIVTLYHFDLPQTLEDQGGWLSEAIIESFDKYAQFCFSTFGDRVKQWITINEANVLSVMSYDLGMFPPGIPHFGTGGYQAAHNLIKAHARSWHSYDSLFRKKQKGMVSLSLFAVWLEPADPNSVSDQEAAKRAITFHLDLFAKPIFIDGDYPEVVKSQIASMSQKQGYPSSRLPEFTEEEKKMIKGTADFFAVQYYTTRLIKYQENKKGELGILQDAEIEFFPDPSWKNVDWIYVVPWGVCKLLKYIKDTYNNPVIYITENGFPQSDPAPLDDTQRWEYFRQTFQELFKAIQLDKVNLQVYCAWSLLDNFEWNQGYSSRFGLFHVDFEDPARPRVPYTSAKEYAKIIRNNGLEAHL
Briefly: Inhibition of beta-Glucosidase at 1 umol/mL.

A short description of assay [5]: Competitive Inhibition constant for Saccharomyces cerevisiae glucosidase.
Assay [6] in a line: Inhibitory concentration for Saccharomyces cerevisiae glucosidase (of family 13 alpha-glucosidase) at 1 umol/mL.
A short description of assay [7]: Inhibition of beta-Mannosidase. The note with it: Homo sapiens; concentration not given here.
In assay [8] the target is T2, Lysosomal alpha-mannosidase (Homo sapiens). Briefly: Inhibition of alpha-Mannosidase. The note with it: concentration not given here.
Assay [9] in a line: Inhibitory concentration of Bacillus stearothermophilus glucosidase (of family 13 alpha-glucosidase) at 1 umol/mL. Set-up: species or system Geobacillus stearothermophilus.
The species entered for assay [10] is Homo sapiens. Briefly: Inhibition of Glucosidase 2 at 12 umol/mL.

This passage reports inhibition, Ki and IC50 results from ChEMBL document CHEMBL1142021, “Aglycon specificity profiling of alpha-glucosidases using synthetic probes” (Bioorg Med Chem Lett, 2005).

A word on the inhibition: it is how much of the control response was suppressed. Read a low inhibition as a response near the control. As to `CC(=O)NCC1OC(CO)C(O)C(O)C1O` (centres undefined), the inhibition (in the assay filed under Homo sapiens [1]; with Saccharomyces cerevisiae; in assay [2]; in assay [3]) was < 1% each time.
On to `CC(C)(C)C(=O)NCC1OC(CO)C(O)C(O)C1O` (centres undefined), for which the inhibition in the assay listed under Homo sapiens [1] is < 1%; with Saccharomyces cerevisiae it was 6.1%; in [2] it was < 1%; in assay [3] it was < 1%.
A word on the Ki: it is a measure of affinity in units of concentration, obtained from inhibition or displacement. As usually defined, the IC50 is the concentration at which inhibition is half-maximal. As for `O=C(NCC1OC(CO)C(O)C(O)C1O)c1ccccc1` (centres undefined), the inhibition in [4] was < 1%; in the assay filed under Homo sapiens [1], 5.9%; in the assay with Saccharomyces cerevisiae, 67.4%; in [2], < 1%; in assay [3], < 1%; in assay [7] it was < 1%. The molecule further gave a Ki in assay [5] of 500 µM. In assay [6], this molecule registered an IC50 of 449 µM.
Regarding `O=C(CCCO)NCC1OC(CO)C(O)C(O)C1O` (centres undefined), the inhibition (in the assay listed under Homo sapiens [1]; with Saccharomyces cerevisiae; in assay [8]; in assay [2]) was < 1% throughout.
In the case of `O=C(CCCCO)NCC1OC(CO)C(O)C(O)C1O` (centres undefined), the inhibition in the assay listed under Homo sapiens [1] was < 1%; in the assay on Saccharomyces cerevisiae, 100%; in assay [2], < 1%; in assay [3] it was < 1%. Further, the inhibitory constant (Ki) in assay [5] came out at 130 µM. Besides, the IC50 in assay [9] worked out at 415 µM; in assay [6] it was 55.5 µM.
For the molecule `O=C(CCO)NCC1OC(CO)C(O)C(O)C1O` (centres undefined), the inhibition in the assay listed under Homo sapiens [10] is < 1%; in the assay with Saccharomyces cerevisiae, 21.1%; in [2], < 1%; in assay [3] it was < 1%.
As for `O=C(CCCCCO)NCC1OC(CO)C(O)C(O)C1O` (centres undefined), the inhibition (in the assay listed under Homo sapiens [1]; with Saccharomyces cerevisiae; in assay [2]; in assay [3]) was < 1% in each case.
`O=C(CO)NCC1OC(CO)C(O)C(O)C1O` (centres undefined): the inhibition (in the assay filed under Homo sapiens [1]; with Saccharomyces cerevisiae; in assay [2]; in [3]) was < 1% each time.
